Columns and labels:
Format in all cases: in vivo
[1] = test system: green foxtail (Setaria viridis); experiment: Test A postemergence application, visual injury rating 0-100; conditions: 10 days
Text: (§1) Seeds of plant species selected from barnyardgrass (Echinochloa crus-galli), blackgrass (Alopecurus myosuroides), corn (Zea mays), foxtail, giant (giant foxtail, Setaria faberi), green foxtail (Setaria viridis), goosegrass (Eleusine indica), kochia (Bassia scoparia), oat, wild (wild oat, Avena fatua), palmer (palmer amaranth, palmer pigweed, Amaranthus palmeri), ragweed (common ragweed, Ambrosia artemisiifolia), ryegrass, Italian (italian ryegrass, Lolium multiflorum), soybean (Glycine max) and wheat (Triticum aestivum) were planted into a blend of loam soil and sand and treated preemergence with a directed soil spray using test chemicals formulated in a non-phytotoxic solvent mixture which included a surfactant.
(§2) At the same time, plants selected from these crops and weed species and also galium (catchweed bedstraw, Galium aparine) and horseweed (Erigeron canadensis) were planted in pots containing the same blend of loam soil and sand and treated with postemergence applications of test chemicals formulated in the same manner. Plants ranged in height from 2 to 10 cm and were in the one- to two-leaf stage for the postemergence treatment. Treated plants and untreated controls were maintained in a greenhouse for 10 days, after which time all treated plants were compared to untreated controls and visually evaluated for injury. Plant response ratings, summarized in Table A, are based on a 0 to 100 scale where 0 is no effect and 100 is complete control. A dash (-) response means no test result.

[2] = test system: ragweed (common ragweed, Ambrosia artemisiifolia); experiment: as above; conditions: 10 days
Text: as §1, §2

[3] = test system: barnyardgrass (Echinochloa crus-galli); experiment: as above; conditions: 10 days
Text: as §1, §2

[4] = test system: wheat (Triticum aestivum); experiment: as above; conditions: 10 days
Text: as §1, §2

[5] = test system: palmer (palmer amaranth, palmer pigweed, Amaranthus palmeri); experiment: as above; conditions: 10 days
Text: as §1, §2

[6] = test system: horseweed (Erigeron canadensis); experiment: as above; conditions: 10 days
Text: as §1, §2

[7] = test system: oat, wild (wild oat, Avena fatua); experiment: as above; conditions: 10 days
Text: as §1, §2

[8] = test system: blackgrass (Alopecurus myosuroides); experiment: as above; conditions: 10 days
Text: as §1, §2

corn (Zea mays) [9] = experiment: as above; conditions: 10 days
Text: as §1, §2

kochia (Bassia scoparia) [10] = experiment: as above; conditions: 10 days
Text: as §1, §2

soybean (Glycine max) [11] = experiment: as above; conditions: 10 days
Text: as §1, §2

[12] = test system: ryegrass, Italian (italian ryegrass, Lolium multiflorum); experiment: as above; conditions: 10 days
Text: as §1, §2

[13] = test system: green foxtail (Setaria viridis); experiment: Test A preemergence soil spray, visual injury rating 0-100; conditions: 10 days, 0 = no effect, 100 = complete control
Outline: (§3)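 Greenhouse test: loam/sand pots received a surfactant-containing formulation, as a preemergence directed soil spray or a postemergence spray on young plants. Injury was judged visually at day 10 relative to untreated controls.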

[14] = test system: ragweed (common ragweed, Ambrosia artemisiifolia); experiment: as above; conditions: 10 days, 0 = no effect, 100 = complete control
Outline: as §3

[15] = test system: barnyardgrass (Echinochloa crus-galli); experiment: as above; conditions: 10 days, 0 = no effect, 100 = complete control
Outline: as §3

[16] = test system: wheat (Triticum aestivum); experiment: as above; conditions: 10 days, 0 = no effect, 100 = complete control
Outline: as §3

[17] = test system: palmer (palmer amaranth, palmer pigweed, Amaranthus palmeri); experiment: as above; conditions: 10 days, 0 = no effect, 100 = complete control
Outline: as §3

[18] = test system: oat, wild (wild oat, Avena fatua); experiment: as above; conditions: 10 days, 0 = no effect, 100 = complete control
Outline: as §3

[19] = test system: blackgrass (Alopecurus myosuroides); experiment: as above; conditions: 10 days, 0 = no effect, 100 = complete control
Outline: as §3

corn (Zea mays) [20] = experiment: as above; conditions: 10 days, 0 = no effect, 100 = complete control
Outline: as §3

kochia (Bassia scoparia) [21] = experiment: as above; conditions: 10 days, 0 = no effect, 100 = complete control
Outline: as §3

soybean (Glycine max) [22] = experiment: as above; conditions: 10 days, 0 = no effect, 100 = complete control
Outline: as §3

[23] = test system: ryegrass, Italian (italian ryegrass, Lolium multiflorum); experiment: as above; conditions: 10 days, 0 = no effect, 100 = complete control
Outline: as §3

[24] = test system: ducksalad (Heteranthera limosa); experiment: Test B flooded paddy test, visual plant response rating 0-100; conditions: 250 g ai/ha, Flood, applied to paddy water, evaluated after 13 days
Procedure: (§4) Plant species in the flooded paddy test selected from barnyardgrass (Echinochloa crusgalli), ducksalad (Heteranthera limosa), rice (Oryza sativa), and sedge, umbrella (small-flower umbrella sedge, Cyperus difformis) were grown to the 2-leaf stage for testing. At time of treatment, test pots were flooded to 3 cm above the soil surface, treated by application of test compounds directly to the paddy water, and then maintained at that water depth for the duration of the test. Treated plants and controls were maintained in a greenhouse for 13 days, after which time all species were compared to controls and visually evaluated. […] A dash (-) response means no test result.

[25] = test system: sedge, umbrella (small-flower umbrella sedge, Cyperus difformis); experiment: as above; conditions: 250 g ai/ha, Flood, applied to paddy water, evaluated after 13 days
Procedure: as §4

[26] = test system: barnyardgrass (Echinochloa crusgalli); experiment: as above; conditions: 250 g ai/ha, Flood, applied to paddy water, evaluated after 13 days
Procedure: as §4

rice (Oryza sativa) = experiment: as above; conditions: 250 g ai/ha, Flood, applied to paddy water, evaluated after 13 days
Procedure: as §4

[27] = 31 g ai/ha, postemergence, 0 = no effect, 100 = complete control
[28] = Postemergence, 125 g ai/ha, 0 is no effect, 100 is complete control

## COC(=O)C1=CC[C@H](NC(=O)C2(C)CN(c3cc(F)cc(F)c3)C(=O)O2)C1 (mixture of isomers) [Compound 37, Methyl (4S)-4-[[[3-(3,5-difluorophenyl)-5-methyl-2-oxo-5-oxazolidinyl]carbonyl]amino]-1-cyclopentene-1-carboxylate]
[1]; [27]
  Foxtail, Green plant response rating (0-100): 90
[1]; [28]
  Foxtail, Green plant response rating (0 to 100 scale): 90
[2]; [27]
  Ragweed plant response rating (0-100): 20
[2]; [28]
  Ragweed plant response rating (0 to 100 scale): 50
[3]; [27]
  Barnyardgrass plant response rating (0-100): 100
[3]; [28]
  Barnyardgrass plant response rating (0 to 100 scale): 100
[4]; [27]
  Wheat plant response rating (0-100): 90
[4]; [28]
  Wheat plant response rating (0 to 100 scale): 90
[5]; [27]
  Amaranth, Palmer plant response rating (0-100): 70
[5]; [28]
  Amaranth, Palmer / Pigweed, Palmer plant response rating (0 to 100 scale): 90
[6]; [27]
  Horseweed plant response rating (0-100): 10
[6]; [28]
  Horseweed plant response rating (0 to 100 scale): 70
[7]; [27]
  Oat, Wild plant response rating (0-100): 90
[7]; [28]
  Oat, Wild plant response rating (0 to 100 scale): 90
[8]; [27]
  Blackgrass plant response rating (0-100): 80
[8]; [28]
  Blackgrass plant response rating (0 to 100 scale): 90
Corn (Zea mays) [9]; [27]
  Corn plant response rating (0-100): 100
Corn (Zea mays) [9]; [28]
  Corn plant response rating (0 to 100 scale): 100
Kochia (Bassia scoparia) [10]; [27]
  Kochia plant response rating (0-100): 80
Kochia (Bassia scoparia) [10]; [28]
  Kochia plant response rating (0 to 100 scale): 80
Soybean (Glycine max) [11]; [27]
  Soybean plant response rating (0-100): 70
Soybean (Glycine max) [11]; [28]
  Soybean plant response rating (0 to 100 scale): 80
[12]; [27]
  Ryegrass, Italian plant response rating (0-100): 80
[12]; [28]
  Ryegrass, Italian plant response rating (0 to 100 scale): 90
[13]; 31 g ai/ha
  Foxtail, Green plant response rating (0-100): 0
[13]; 125 g ai/ha
  Foxtail, Green plant response rating (0 to 100 scale): 90
[14]; 31 g ai/ha
  Ragweed plant response rating (0-100): 60
[14]; 125 g ai/ha
  Ragweed plant response rating (0 to 100 scale): 0
[15]; 31 g ai/ha
  Barnyardgrass plant response rating (0-100): 30
[15]; 125 g ai/ha
  Barnyardgrass plant response rating (0 to 100 scale): 90
[16]; 31 g ai/ha
  Wheat plant response rating (0-100): 40
[16]; 125 g ai/ha
  Wheat plant response rating (0 to 100 scale): 80
[17]; 31 g ai/ha
  Amaranth, Palmer plant response rating (0-100): 10
[17]; 125 g ai/ha
  Amaranth, Palmer plant response rating (0 to 100 scale): 80
[18]; 31 g ai/ha
  Oat, Wild plant response rating (0-100): 20
[18]; 125 g ai/ha
  Oat, Wild plant response rating (0 to 100 scale): 60
[19]; 31 g ai/ha
  Blackgrass plant response rating (0-100): 0
[19]; 125 g ai/ha
  Blackgrass plant response rating (0 to 100 scale): 20
Corn (Zea mays) [20]; 31 g ai/ha
  Corn plant response rating (0-100): 10
Corn (Zea mays) [20]; 125 g ai/ha
  Corn plant response rating (0 to 100 scale): 80
Kochia (Bassia scoparia) [21]; 31 g ai/ha
  Kochia plant response rating (0-100): 0
Kochia (Bassia scoparia) [21]; 125 g ai/ha
  Kochia plant response rating (0 to 100 scale): 20
Soybean (Glycine max) [22]; 31 g ai/ha
  Soybean plant response rating (0-100): 10
Soybean (Glycine max) [22]; 125 g ai/ha
  Soybean plant response rating (0 to 100 scale): 70
[23]; 31 g ai/ha
  Ryegrass, Italian plant response rating (0-100): 70
[23]; 125 g ai/ha
  Ryegrass, Italian plant response rating (0 to 100 scale): 90
[24]
  Plant response rating, Ducksalad (0 to 100 scale, 0 is no effect and 100 is complete control): 95
[25]
  Plant response rating, Sedge, Umbrella (0 to 100 scale, 0 is no effect and 100 is complete control): 100
[26]
  Plant response rating, Barnyardgrass (0 to 100 scale, 0 is no effect and 100 is complete control): 75
Rice (Oryza sativa)
  Plant response rating, Rice (0 to 100 scale, 0 is no effect and 100 is complete control): 65
